{
  "source": "patent US11643385B2",
  "about": "“Polymorphic forms of RAD1901-2HCl” (RADIUS PHARMACEUTICALS, INC., priority 2018, dated 2023)",
  "data": [
    {"assay": "Solubility assessment and polymorph screen on amorphous RAD1901-2HCl", "format": "physicochemical", "conditions": "after maturation at 25° C.", "description": "(§1) In a scale-up preparation of amorphous RAD1901-2HCl, RAD1901-2HCl (600 mg) was dissolved in water (20 vol., 12 mL) and filtered to remove any remaining solid particles. The solution was then aliquoted into 24 HPLC vials, frozen in a dry ice/acetone bath and the solvent removed by lyophilisation. Solids produced by lyophilization were used directly in solubility assessment and polymorph screens in Example 4.\n(§2) Amorphous RAD1901-2HCl prepared as described in Example 3B was used directly in solubility assessment and polymorph screens (Table 15). XRPD patterns were further obtained for amorphous RAD1901-2HCl prepared using other solvents.\n(§3) In the polymorph screen of the amorphous RAD1901-2HCl prepared as described in Example 3B, an aliquot of each sample was examined for its morphology under the microscope, both after maturing at 25° C., and after maturing at 50° C./RT. […] In some instances, the sample appeared to be a mixture of various polymorphic forms, e.g. Form 2 and Form 3 (FIGS. 18B-18C), similar to the mixture of Forms 2 and 3 in Sample 2 having an equilibrium between the two solid forms, depending on the prevailing RH.", "values": [
      {"smiles": "CCNCCc1ccc(CN(CC)c2cc(OC)ccc2[C@@H]2CCc3cc(O)ccc3C2)cc1.Cl.Cl", "note": "[Form B12.]", "XRPD post 25° C. (form)": "Form 3"},
      {"smiles": "CCNCCc1ccc(CN(CC)c2cc(OC)ccc2[C@@H]2CCc3cc(O)ccc3C2)cc1.Cl.Cl", "note": "[Form B13.]", "XRPD post 25° C. (form)": "Amorphous"}
    ]},
    {"assay": "Solubility assessment and polymorph screen on amorphous RAD1901-2HCl", "format": "physicochemical", "conditions": "after maturation at 50° C./RT", "description": "as §1, §2, §3", "values": [
      {"smiles": "CCNCCc1ccc(CN(CC)c2cc(OC)ccc2[C@@H]2CCc3cc(O)ccc3C2)cc1.Cl.Cl", "note": "[Form B1.]", "XRPD post 50° C./RT (form)": "Amorphous"},
      {"smiles": "CCNCCc1ccc(CN(CC)c2cc(OC)ccc2[C@@H]2CCc3cc(O)ccc3C2)cc1.Cl.Cl", "note": "[Form B2.]", "XRPD post 50° C./RT (form)": "Form 2/3"},
      {"smiles": "CCNCCc1ccc(CN(CC)c2cc(OC)ccc2[C@@H]2CCc3cc(O)ccc3C2)cc1.Cl.Cl", "note": "[Form B3.]", "XRPD post 50° C./RT (form)": "Form 2/3"},
      {"smiles": "CCNCCc1ccc(CN(CC)c2cc(OC)ccc2[C@@H]2CCc3cc(O)ccc3C2)cc1.Cl.Cl", "note": "[Form B4.]", "XRPD post 50° C./RT (form)": "Form 2/3"},
      {"smiles": "CCNCCc1ccc(CN(CC)c2cc(OC)ccc2[C@@H]2CCc3cc(O)ccc3C2)cc1.Cl.Cl", "note": "[Form B5.]", "XRPD post 50° C./RT (form)": "Form 3"},
      {"smiles": "CCNCCc1ccc(CN(CC)c2cc(OC)ccc2[C@@H]2CCc3cc(O)ccc3C2)cc1.Cl.Cl", "note": "[Form B6.]", "XRPD post 50° C./RT (form)": "Form 1^+"},
      {"smiles": "CCNCCc1ccc(CN(CC)c2cc(OC)ccc2[C@@H]2CCc3cc(O)ccc3C2)cc1.Cl.Cl", "note": "[Form B7.]", "XRPD post 50° C./RT (form)": "Form 1^+"},
      {"smiles": "CCNCCc1ccc(CN(CC)c2cc(OC)ccc2[C@@H]2CCc3cc(O)ccc3C2)cc1.Cl.Cl", "note": "[Form B8.]", "XRPD post 50° C./RT (form)": "Form 1"},
      {"smiles": "CCNCCc1ccc(CN(CC)c2cc(OC)ccc2[C@@H]2CCc3cc(O)ccc3C2)cc1.Cl.Cl", "note": "[Form B10.]", "XRPD post 50° C./RT (form)": "Form 1"},
      {"smiles": "CCNCCc1ccc(CN(CC)c2cc(OC)ccc2[C@@H]2CCc3cc(O)ccc3C2)cc1.Cl.Cl", "note": "[Form B12.]", "XRPD post 50° C./RT (form)": "Form 3"},
      {"smiles": "CCNCCc1ccc(CN(CC)c2cc(OC)ccc2[C@@H]2CCc3cc(O)ccc3C2)cc1.Cl.Cl", "note": "[Form B13.]", "XRPD post 50° C./RT (form)": "Poor"},
      {"smiles": "CCNCCc1ccc(CN(CC)c2cc(OC)ccc2[C@@H]2CCc3cc(O)ccc3C2)cc1.Cl.Cl", "note": "[Form B14.]", "XRPD post 50° C./RT (form)": "Poor"}
    ]},
    {"assay": "Solubility assessment and polymorph screen on amorphous RAD1901-2HCl", "format": "physicochemical", "conditions": "amorphous RAD1901-2HCl; 10 vol. solvent (solvent per sample ID)", "description": "as §1, §2, §3", "values": [
      {"smiles": "CCNCCc1ccc(CN(CC)c2cc(OC)ccc2[C@@H]2CCc3cc(O)ccc3C2)cc1.Cl.Cl", "note": "[Form B1.]", "Solubility observation at 10 vol.": "X (X = suspension)"},
      {"smiles": "CCNCCc1ccc(CN(CC)c2cc(OC)ccc2[C@@H]2CCc3cc(O)ccc3C2)cc1.Cl.Cl", "note": "[Form B3.]", "Solubility observation at 10 vol.": "X (X = suspension)"},
      {"smiles": "CCNCCc1ccc(CN(CC)c2cc(OC)ccc2[C@@H]2CCc3cc(O)ccc3C2)cc1.Cl.Cl", "note": "[Form B4.]", "Solubility observation at 10 vol.": "X (X = suspension)"},
      {"smiles": "CCNCCc1ccc(CN(CC)c2cc(OC)ccc2[C@@H]2CCc3cc(O)ccc3C2)cc1.Cl.Cl", "note": "[Form B5.]", "Solubility observation at 10 vol.": "X (X = suspension)"},
      {"smiles": "CCNCCc1ccc(CN(CC)c2cc(OC)ccc2[C@@H]2CCc3cc(O)ccc3C2)cc1.Cl.Cl", "note": "[Form B6.]", "Solubility observation at 10 vol.": "X (X = suspension)"},
      {"smiles": "CCNCCc1ccc(CN(CC)c2cc(OC)ccc2[C@@H]2CCc3cc(O)ccc3C2)cc1.Cl.Cl", "note": "[Form B7.]", "Solubility observation at 10 vol.": "X (X = suspension)"},
      {"smiles": "CCNCCc1ccc(CN(CC)c2cc(OC)ccc2[C@@H]2CCc3cc(O)ccc3C2)cc1.Cl.Cl", "note": "[Form B8.]", "Solubility observation at 10 vol.": "X (X = suspension)"},
      {"smiles": "CCNCCc1ccc(CN(CC)c2cc(OC)ccc2[C@@H]2CCc3cc(O)ccc3C2)cc1.Cl.Cl", "note": "[Form B10.]", "Solubility observation at 10 vol.": "X (X = suspension)"},
      {"smiles": "CCNCCc1ccc(CN(CC)c2cc(OC)ccc2[C@@H]2CCc3cc(O)ccc3C2)cc1.Cl.Cl", "note": "[Form B11.]", "Solubility observation at 10 vol.": "S (S = solution)"},
      {"smiles": "CCNCCc1ccc(CN(CC)c2cc(OC)ccc2[C@@H]2CCc3cc(O)ccc3C2)cc1.Cl.Cl", "note": "[Form B12.]", "Solubility observation at 10 vol.": "S (S = solution)"},
      {"smiles": "CCNCCc1ccc(CN(CC)c2cc(OC)ccc2[C@@H]2CCc3cc(O)ccc3C2)cc1.Cl.Cl", "note": "[Form B13.]", "Solubility observation at 10 vol.": "X (X = suspension)"},
      {"smiles": "CCNCCc1ccc(CN(CC)c2cc(OC)ccc2[C@@H]2CCc3cc(O)ccc3C2)cc1.Cl.Cl", "note": "[Form B14.]", "Solubility observation at 10 vol.": "X (X = suspension)"}
    ]},
    {"assay": "Solubility assessment and polymorph screen on amorphous RAD1901-2HCl", "format": "physicochemical", "conditions": "maturation at 25° C.", "description": "as §1, §2, §3", "values": [
      {"smiles": "CCNCCc1ccc(CN(CC)c2cc(OC)ccc2[C@@H]2CCc3cc(O)ccc3C2)cc1.Cl.Cl", "note": "[Form B11.]", "Observation After maturation at 25° C.": "S"}
    ]},
    {"assay": "Solubility assessment and polymorph screen on amorphous RAD1901-2HCl", "format": "physicochemical", "conditions": "maturation at 50° C./RT", "description": "as §1, §2, §3", "values": [
      {"smiles": "CCNCCc1ccc(CN(CC)c2cc(OC)ccc2[C@@H]2CCc3cc(O)ccc3C2)cc1.Cl.Cl", "note": "[Form B8.]", "Observation After maturation at 50° C.": "Crystalline"},
      {"smiles": "CCNCCc1ccc(CN(CC)c2cc(OC)ccc2[C@@H]2CCc3cc(O)ccc3C2)cc1.Cl.Cl", "note": "[Form B10.]", "Observation After maturation at 50° C.": "Fine"},
      {"smiles": "CCNCCc1ccc(CN(CC)c2cc(OC)ccc2[C@@H]2CCc3cc(O)ccc3C2)cc1.Cl.Cl", "note": "[Form B11.]", "Observation After maturation at 50° C.": "S"},
      {"smiles": "CCNCCc1ccc(CN(CC)c2cc(OC)ccc2[C@@H]2CCc3cc(O)ccc3C2)cc1.Cl.Cl", "note": "[Form B12.]", "Observation After maturation at 50° C.": "Lath"},
      {"smiles": "CCNCCc1ccc(CN(CC)c2cc(OC)ccc2[C@@H]2CCc3cc(O)ccc3C2)cc1.Cl.Cl", "note": "[Form B13.]", "Observation After maturation at 50° C.": "Some"}
    ]}
  ]
}
